ChEMBL document CHEMBL1201862, “PubChem BioAssay data set” (2004)
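1) Cells in 96-well plates. 2) Compound, 48 h, 5 concentrations. 3) Linear interpolation between surrounding doses. 4) Unreached endpoint = highest concentration. At the GI50, growth is halved.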 The source made the active and inactive calls. Rule as the data show it: active = GI50 up to about 1.1 µM and inactive = higher.

What was measured:
Test in all cases: DTP human tumour cell line panel, 48 h
A498 = system: A498
ACHN = system: ACHN
CAKI-1 = system: CAKI-1
CCRF-CEM = system: CCRF-CEM
EKVX = system: EKVX
Hs-578T = system: Hs-578T
K562 = system: K562
LOX IMVI = system: LOX IMVI
MDA-MB-231 = system: MDA-MB-231
Malme-3M = system: Malme-3M
NCI-H522 = system: NCI-H522
NCI/ADR-RES = system: NCI/ADR-RES
OVCAR-8 = system: OVCAR-8
RPMI-8226 = system: RPMI-8226
RXF 393 = system: RXF 393
SNB-19 = system: SNB-19
T47D = system: T47D
TK-10 = system: TK-10
U-251 = system: U-251
UACC-62 = system: UACC-62

Structure (SMILES)	GI50 (A498)	GI50 (ACHN)	GI50 (CAKI-1)	GI50 (CCRF-CEM)	GI50 (EKVX)	GI50 (Hs-578T)	GI50 (K562)	GI50 (LOX IMVI)	GI50 (MDA-MB-231)	GI50 (Malme-3M)	GI50 (NCI-H522)	GI50 (NCI/ADR-RES)	GI50 (OVCAR-8)	GI50 (RPMI-8226)	GI50 (RXF 393)	GI50 (SNB-19)	GI50 (T47D)	GI50 (TK-10)	GI50 (U-251)	GI50 (UACC-62)
CCc1nnc2sc(-c3ccc(-c4ccc(Cl)cc4Cl)o3)nn12	30.3 µM (inactive)	82 µM (inactive)	96.6 µM (inactive)	37.3 µM (inactive)	54.8 µM (inactive)	74.8 µM (inactive)	47.2 µM (inactive)	74.1 µM (inactive)	35 µM (inactive)	> 100 µM (inactive)	52.4 µM (inactive)	50.2 µM (inactive)	71 µM (inactive)	29.2 µM (inactive)	3.79 µM (inactive)	> 100 µM (inactive)	18 µM (inactive)	43.7 µM (inactive)	37.3 µM (inactive)	
CC(C)(C)OC(=O)NC(Cc1ccccc1)C(=O)OCN1C(=O)C2C3C=CC(C2C1=O)C1C2C(=O)N(COC(=O)C(Cc4ccccc4)NC(=O)OC(C)(C)C)C(=O)C2C31 (configuration not stated)	25.9 µM (inactive)	40.6 µM (inactive)	27.5 µM (inactive)	2.67 µM (inactive)	23.6 µM (inactive)	18.7 µM (inactive)	23.1 µM (inactive)	36.9 µM (inactive)	29.7 µM (inactive)	39.4 µM (inactive)	23.7 µM (inactive)	43 µM (inactive)	30.1 µM (inactive)	18.8 µM (inactive)	22.7 µM (inactive)	34.3 µM (inactive)	36.3 µM (inactive)	31 µM (inactive)	41.2 µM (inactive)	44.8 µM (inactive)
O=C(COC(=O)c1ccccc1)c1ccc(Br)cc1	15.8 µM (inactive)	19.9 µM (inactive)	1.47 µM (inactive)	4.04 µM (inactive)	14.7 µM (inactive)	14.3 µM (inactive)	4.4 µM (inactive)	3.06 µM (inactive)	14.3 µM (inactive)	12.2 µM (inactive)	1.63 µM (inactive)	21 µM (inactive)	12.5 µM (inactive)	3.39 µM (inactive)	2.75 µM (inactive)	16.9 µM (inactive)	9.06 µM (inactive)	2.58 µM (inactive)	11 µM (inactive)	13 µM (inactive)
O=C(O)c1cc2c(s1)C(=O)c1sccc1C2=O	17.5 µM (inactive)	8.43 µM (inactive)	12.4 µM (inactive)	6.84 µM (inactive)	15.7 µM (inactive)	2.49 µM (inactive)	4.03 µM (inactive)	1.32 µM (inactive)	9.73 µM (inactive)	0.659 µM (active)	3.54 µM (inactive)	5.4 µM (inactive)	4.09 µM (inactive)	12.7 µM (inactive)	6.87 µM (inactive)	5.48 µM (inactive)	4.97 µM (inactive)	20.1 µM (inactive)	5.02 µM (inactive)	2.08 µM (inactive)
N=C(N)NCCCC(NCc1c2ccccc2nc2ccccc12)C(=O)O (configuration not stated)	> 100 µM (inactive)	31.5 µM (inactive)	26.6 µM (inactive)	9.55 µM (inactive)	33.1 µM (inactive)	69.7 µM (inactive)	10.1 µM (inactive)	26.2 µM (inactive)	23.8 µM (inactive)	> 73.1 µM (inactive)	22.9 µM (inactive)	28.5 µM (inactive)	25.7 µM (inactive)	10.4 µM (inactive)	57 µM (inactive)	48.4 µM (inactive)	36.2 µM (inactive)	49.5 µM (inactive)	47.2 µM (inactive)	31.3 µM (inactive)
COc1ccc(/C=C2\CCC/C(=C\c3ccc(O)c(CN4CCCCC4)c3)C2=O)cc1	9.57 µM (inactive)	10.3 µM (inactive)	11.1 µM (inactive)	4.02 µM (inactive)	10 µM (inactive)	11.5 µM (inactive)	3.96 µM (inactive)	2.82 µM (inactive)	4.09 µM (inactive)	11.5 µM (inactive)	2.96 µM (inactive)	2.77 µM (inactive)	2.81 µM (inactive)	3.89 µM (inactive)	20.3 µM (inactive)	23.4 µM (inactive)	19.3 µM (inactive)	5.77 µM (inactive)	4.06 µM (inactive)	3.9 µM (inactive)
CC12CCC3c4ccc(O)cc4CCC3C1C/C(=N\O)C2O (configuration not stated)	> 100 µM (inactive)	> 100 µM (inactive)	> 100 µM (inactive)	42.7 µM (inactive)	26.8 µM (inactive)	99.1 µM (inactive)	> 100 µM (inactive)	> 100 µM (inactive)	> 100 µM (inactive)	> 100 µM (inactive)	> 100 µM (inactive)	> 100 µM (inactive)	> 100 µM (inactive)	85.1 µM (inactive)	> 100 µM (inactive)	> 100 µM (inactive)	> 100 µM (inactive)	45.4 µM (inactive)	> 100 µM (inactive)	> 100 µM (inactive)
COC1(OC)c2no[n+]([O-])c2CCC1O (configuration not stated)	> 100 µM (inactive)	> 100 µM (inactive)	> 100 µM (inactive)	> 100 µM (inactive)	> 100 µM (inactive)	> 100 µM (inactive)	> 100 µM (inactive)	> 100 µM (inactive)	> 100 µM (inactive)	> 100 µM (inactive)	> 100 µM (inactive)	> 100 µM (inactive)	> 100 µM (inactive)	> 100 µM (inactive)	> 100 µM (inactive)	> 100 µM (inactive)	> 100 µM (inactive)	> 100 µM (inactive)		> 100 µM (inactive)
COC(=O)c1ccccc1CC(Cc1ccccc1)C(=O)OC (configuration not stated)	92.5 µM (inactive)	> 100 µM (inactive)	83.4 µM (inactive)	87.9 µM (inactive)	45.9 µM (inactive)	56 µM (inactive)	37.7 µM (inactive)	58.9 µM (inactive)	> 100 µM (inactive)	64.4 µM (inactive)	50.6 µM (inactive)	42.5 µM (inactive)	87.1 µM (inactive)	27.6 µM (inactive)	33.7 µM (inactive)	68.4 µM (inactive)	> 10 µM (inactive)	99.1 µM (inactive)	30.8 µM (inactive)	
Cc1cc2c(cc1C)NC1=C(O)C(c3c[nH]c4ccc(COc5ccccc5)cc34)OC1=N2 (configuration not stated)	32 µM (inactive)	45.7 µM (inactive)	> 100 µM (inactive)		37.8 µM (inactive)	36 µM (inactive)	> 100 µM (inactive)	> 100 µM (inactive)	22.3 µM (inactive)	> 100 µM (inactive)	> 100 µM (inactive)	> 100 µM (inactive)	43.9 µM (inactive)	> 100 µM (inactive)	39.6 µM (inactive)	42.2 µM (inactive)	> 100 µM (inactive)	53.5 µM (inactive)	34.4 µM (inactive)	> 100 µM (inactive)
Cc1ccc(-c2nc3cc(F)c(N4CCN(C)CC4)cc3[nH]2)cc1	32.7 µM (inactive)	21.1 µM (inactive)	32.1 µM (inactive)	23.4 µM (inactive)	23.1 µM (inactive)	10.7 µM (inactive)	16.4 µM (inactive)	27.9 µM (inactive)	71.3 µM (inactive)	15.3 µM (inactive)	14.5 µM (inactive)	28.8 µM (inactive)		33.6 µM (inactive)	18.5 µM (inactive)	22 µM (inactive)	23 µM (inactive)	22.2 µM (inactive)	29.5 µM (inactive)	16.3 µM (inactive)
CC(=O)Oc1cccc2c1C(=O)CCCC2	> 100 µM (inactive)	> 100 µM (inactive)	> 100 µM (inactive)	> 100 µM (inactive)	> 100 µM (inactive)	> 100 µM (inactive)	> 100 µM (inactive)	> 100 µM (inactive)	> 100 µM (inactive)	> 100 µM (inactive)	> 100 µM (inactive)	> 100 µM (inactive)	> 100 µM (inactive)		> 100 µM (inactive)	> 100 µM (inactive)	> 100 µM (inactive)	> 100 µM (inactive)	> 100 µM (inactive)	> 100 µM (inactive)
CCNC(=O)c1cc(Cl)ccc1NC(=O)C12CC3CC(CC(C3)C1)C2	> 100 µM (inactive)	44.1 µM (inactive)	30.3 µM (inactive)	23.2 µM (inactive)	21.4 µM (inactive)	> 100 µM (inactive)	28.2 µM (inactive)	42 µM (inactive)	71.8 µM (inactive)	> 100 µM (inactive)	75.5 µM (inactive)	47.8 µM (inactive)	34.3 µM (inactive)	24.5 µM (inactive)	19.2 µM (inactive)	43.6 µM (inactive)	34.5 µM (inactive)	52.8 µM (inactive)	34.5 µM (inactive)	
Cn1c(=S)c2nc(SCc3cccnc3)[nH]c2n(C)c1=O	> 100 µM (inactive)	> 100 µM (inactive)	> 100 µM (inactive)		> 100 µM (inactive)	92 µM (inactive)	> 100 µM (inactive)	> 100 µM (inactive)	> 100 µM (inactive)	93.8 µM (inactive)	82 µM (inactive)	> 100 µM (inactive)	> 100 µM (inactive)	> 100 µM (inactive)	> 100 µM (inactive)	> 100 µM (inactive)	> 100 µM (inactive)	> 100 µM (inactive)	> 100 µM (inactive)	> 100 µM (inactive)
